Results from patent US7659404B2, “Broad spectrum 2-(substituted-amino)-benzothiazole sulfonamide HIV protease inhibitors” (Tibotec Pharmaceuticals Ltd., priority 2001, dated 2010).

How the values were obtained:
virus strain S (R13080) = test: microbe, parasite or virus in culture; assay type: cell-based, HIV; conditions: FR=EC50(mutant strain)/EC50(HIV-1 strain LAI); strain S
Summary of the method: (§1)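 HIV-infected MT4 cells were incubated five days with inhibitor, and viability was read by MTT reduction at 540 nm. EC50/EC90 are the concentrations protecting 50%/90% of cells from viral cytopathic effect. Fold resistance is EC50 against the clinical isolate divided by EC50 against HIV-1 LAI.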

virus strain F (R13025) = test: microbe, parasite or virus in culture; assay type: cell-based, HIV; conditions: FR=EC50(mutant strain)/EC50(HIV-1 strain LAI); strain F
Summary of the method: as §1

[1] = system: clinically isolated HIV strain O; assay type: cell-based; conditions: FR=EC50(mutant strain)/EC50(HIV-1 strain LAI)
Protocol: (§2) HIV- or mock-infected MT4 cells were incubated for five days in the presence of various concentrations of the inhibitor. […] Cell viability is measured by measuring the concentration of MTT, a yellow, water soluble tetrazolium dye that is converted to a purple, water insoluble formazan in the mitochondria of living cells only. Upon solubilization of the resulting formazan crystals with isopropanol, the absorbance of the solution is monitored at 540 nm. The values correlate directly to the number of living cells remaining in the culture at the completion of the five day incubation. The inhibitory activity of the compound was monitored on the virus-infected cells and was expressed as EC50 and EC90. These values represent the amount of the compound required to protect 50% and 90%, respectively, of the cells from the cytopathogenic effect of the virus. The toxicity of the compound was measured on the mock-infected cells and was expressed as CC50, which represents the concentration of compound required to inhibit the growth of the cells by 50%. The selectivity index (SI) (ratio CC50/EC50) is an indication of the selectivity of the anti-HIV activity of the inhibitor.
(§3) Because of the increasing emergence of drug resistant HIV strains, the present compounds were tested for their potency against clinically isolated HIV strains harboring several mutations.
(§4) As a measure of the broad spectrum activity of the present compounds, the fold resistance (FR) defined as FR=EC50(mutant strain)/EC50(HIV-1 strain LAI).

[2] = system: clinically isolated HIV strain H; assay type: cell-based; conditions: FR=EC50(mutant strain)/EC50(HIV-1 strain LAI)
Protocol: as §2, §3, §4

[3] = system: clinically isolated HIV strain I; assay type: cell-based; conditions: FR=EC50(mutant strain)/EC50(HIV-1 strain LAI)
Protocol: as §2, §3, §4

[4] = system: clinically isolated HIV strain T; assay type: cell-based; conditions: FR=EC50(mutant strain)/EC50(HIV-1 strain LAI)
Protocol: as §2, §3, §4

[5] = system: clinically isolated HIV strain J; assay type: cell-based; conditions: FR=EC50(mutant strain)/EC50(HIV-1 strain LAI)
Protocol: as §2, §3, §4

Row | SMILES | fold resistance (FR), strain S (virus strain S (R13080)) | fold resistance (FR), strain F (virus strain F (R13025)) | fold resistance (FR), strain O [1] | fold resistance (FR), strain H [2] | fold resistance (FR), strain I [3] | fold resistance (FR), strain T [4] | fold resistance (FR), strain J [5]
1 | CC(C)CN(C[C@@H](O)[C@H](Cc1ccccc1)NC(=O)OCc1cncs1)S(=O)(=O)c1ccc2nc(NCCN(C)C)sc2c1 [Compound 48] | 13.8 | 9.4 | 4.3 | 2.5 | 2.5 | 175.0 | 6.5
2 | CNCCNc1nc2ccc(S(=O)(=O)N(CC(C)C)C[C@@H](O)[C@H](Cc3ccccc3)NC(=O)O[C@H]3CO[C@H]4OCC[C@H]43)cc2s1 [Compound 23] | 1.1 | 1.1 | 0.9 | 1.2 | 1.0 | 1.2 | 1.0
3 | CC(=O)Nc1nc2ccc(S(=O)(=O)N(CC(C)C)C[C@@H](O)[C@H](Cc3ccccc3)NC(=O)Cc3cc(C)no3)cc2s1 [Compound 84] | 195.4 | 54.3 | 6.1 | 11.7 | 13.0 | 195.4 | 19.6
4 | CC(C)CN(C[C@@H](O)[C@H](Cc1ccccc1)NC(=O)O[C@H]1CO[C@H]2OCC[C@H]21)S(=O)(=O)c1ccc2nc(N3CCN(C)C(=O)C3)sc2c1 [Compound 24] | 24.1 | 16.6 | 1.6 | 4.7 | 1.1 | 174.9 | 4.5
5 | Cc1cccc(C)c1OCC(=O)N[C@@H](Cc1ccccc1)[C@H](O)CN(CC(C)C)S(=O)(=O)c1ccc2nc(NCCCN(C)C)sc2c1 [Compound 53] | 3.8 | 2.1 | 1.6 | 0.6 | 1.3 | 49.8 | 1.4
6 | CC(C)CN(C[C@@H](O)[C@H](Cc1ccccc1)NC(=O)OCc1cccnc1)S(=O)(=O)c1ccc2nc(NCCN3CCNCC3)sc2c1 [Compound 58] | 4.4 | 2.1 | 1.7 | 1.6 | 0.7 | 27.0 | 2.0
7 | CC(C)CN(C[C@@H](O)[C@H](Cc1ccccc1)NC(=O)OCc1cncs1)S(=O)(=O)c1ccc2nc(NCCN3CCNCC3)sc2c1 [Compound 57] | 1.6 | 1.3 | 1.3 | 1.6 | 1.3 | 9.0 | 1.3
8 | CC(C)CN(C[C@@H](O)[C@H](Cc1ccccc1)NC(=O)O[C@H]1CO[C@H]2OCC[C@H]21)S(=O)(=O)c1ccc2nc(N3CCN(C)CC3=O)sc2c1 [Compound 26] | 34.1 | 29.6 | 10.6 | 20.3 | 6.6 | 345.6 | 9.2
9 | CC(=O)Nc1nc2ccc(S(=O)(=O)N(CC(C)C)C[C@@H](O)[C@H](Cc3ccccc3)NC(=O)c3cc(N)ccc3C)cc2s1 [Compound 73] | 966.6 | 43.1 | 20.7 | 9.8 | 12.1 | 966.6 | 14.1
10 | CC(=O)Nc1nc2ccc(S(=O)(=O)N(CC(C)C)C[C@@H](O)[C@H](Cc3ccccc3)NC(=O)c3cc([N+](=O)[O-])ccc3C)cc2s1 [Compound 72] | 118.0 | 67.0 | 24.4 | 24.9 | 26.2 | 641.1 | 11.4
11 | CC(C)CN(C[C@@H](O)[C@H](Cc1ccccc1)NC(=O)O[C@H]1CO[C@H]2OCC[C@H]21)S(=O)(=O)c1ccc2nc(NC(=O)CN3CCNCC3)sc2c1 [Compound 17] | 0.6 | 0.3 | 0.3 | 0.8 | 0.7 | 1.0 | 0.2
12 | CC(C)CN(C[C@@H](O)[C@H](Cc1ccccc1)NC(=O)OCc1cncs1)S(=O)(=O)c1ccc2nc(NCCN3CCCC3)sc2c1.O=C(O)C(F)(F)F [Compound 50] | 27.9 | 8.6 | 3.5 | 1.4 | 1.7 | 165.5 | 7.0
13 | Cc1c(N)cccc1C(=O)N[C@@H](Cc1ccccc1)[C@H](O)CN(CC(C)C)S(=O)(=O)c1ccc2nc(NCCN3CCCC3)sc2c1 [Compound 45] | 19.9 | 17.3 | 1.3 | 1.2 | 4.0 | 103.0 | 1.1
14 | CC(=O)N(CCN1CCCC1)c1nc2ccc(S(=O)(=O)N(CC(C)C)C[C@@H](O)[C@H](Cc3ccccc3)NC(=O)COc3c(C)cccc3C)cc2s1 [Compound 78] | 12.1 | 4.8 | 8.9 | 2.6 | 3.9 | 60.5 | 2.9
15 | CC(=O)N(C)c1nc2ccc(S(=O)(=O)N(CC(C)C)C[C@@H](O)[C@H](Cc3ccccc3)NC(=O)OCc3cccnc3)cc2s1 [Compound 81] | 121.0 | 106.8 | 20.4 | 5.6 | 6.1 | 387.6 | 29.6
16 | CC(C)CN(C[C@@H](O)[C@H](Cc1ccccc1)NC(=O)O[C@H]1CO[C@H]2OCC[C@H]21)S(=O)(=O)c1ccc2nc(N3CCN(C)C3=O)sc2c1 [Compound 25] | 42.5 | 26.0 | 5.6 | 4.7 | 3.5 | 619.8 | 6.0
17 | CC(=O)N(CCN1CCCC1)c1nc2ccc(S(=O)(=O)N(CC(C)C)C[C@@H](O)[C@H](Cc3ccccc3)NC(=O)OCc3cccnc3)cc2s1 [Compound 71] | 79.6 | 29.6 | 5.0 | 2.7 | 2.2 | 321.5 | 7.0
